Key:
Mature human adipocytes [1] = assay: Lipolytic effect, daily titration of released glycerol over 3 days; format: cell-based; conditions: Caffeine 300ppm; for activation at 300 ppm: Homo sapiens, Adipocyte, read-out: released glycerol, versus negative control
Method: (§1) Mature human adipocytes were treated with zerumbone to evaluate daily for 3 days. A daily titration of the released glycerol, reflecting lipolysis, was measured in the medium, before the media were changed in order to monitor the long-term effect.
In a second test, mature human adipocytes were treated with the product to evaluate daily for 3 days. A daily titration of the released glycerol was performed in the media, just before changing of the media in order to monitor the long term effect. Table 19: Comparison of the lipolytic effect of caffeine, zerumbone and of a mixture of caffeine and zerumbone on hypertrophied adipocytes in monolayer (n=4) at short and long term.

Mature human adipocytes [2] = assay: Lipolytic effect, released glycerol after 3 hours; format: cell-based; conditions: Adipocyte, Caffeine 300ppm, contact time 3h, read-out: released glycerol, versus negative control
Method: In a first test, mature human adipocytes were treated with the product to evaluate for 3 hours, then titration of the released glycerol, reflecting lipolysis, was measured in the medium.

mature adipocytes = assay: Intracellular triglyceride quantity in mature adipocytes; format: cell-based, human; conditions: Caffeine 300ppm
Method: as §1
Table 5: comparison of the intracellula triglyceride quantity found in mature adipocytes
Table 20: Comparison of the intracellular triglyceride content found in the mature adipocytes; compared effect of zerumbone, caffeine and of a mixture of zerumbone and caffeine.

Sirtuin-1 = Sirtuin-1 level in keratinocytes, ELISA; format: cell-based; conditions: Homo sapiens, Keratinocyte, 144 h, positive control at 500µm, read-out: Sirtuin-1 % Variation
Method: Human keratinocytes were cultured in the presence or absence of the Globularia cordifolia extract for 6 days and were then grinded and the intracellular levels of sirtuin-1 were measured using an ELISA method. Results were standardized by parallel measurement of total protein (BCA).

BSA = assay: Anti-glycation activity, BSA and fructose, fluorescence; format: biochemical; conditions: positive control at 0.03%
Excerpt: The anti-glycation effect of the extract of Globularia cordifolia was studied using a protein model, the BSA, and a natural reducing sugar, fructose which glycates, i.e. binds, to the protein in a non-enzymatic manner. The product of this binding is fluorescent and is monitored with a fluorimeter.

## Cn1c(=O)c2c(ncn2C)n(C)c1=O [Caffeine, caffeine]
Mature human adipocytes [1]; contact time 1 day
  released glycerol, versus negative control: +200%
Mature human adipocytes [1]; 24 h, contact time 1 day
  activation at 300 ppm: 200%
Mature human adipocytes [1]; 48 h, contact time 2 days
  activation at 300 ppm: 34%
Mature human adipocytes [1]; 72 h, contact time 3 days
  activation at 300 ppm: 18%
Mature human adipocytes [2]
  activation at 300 ppm: 171%
Mature adipocytes
  Triglycerides: 7120 ± 542 µM/10^6 cell.
Mature adipocytes; Homo sapiens, Adipocyte, 72 h, dns, read-out: Triglycerides Variation (%)
  inhibition at 300 ppm: 9%

## Cc1c(C)c2c(c(C)c1O)CCC(C)(C(=O)O)O2 (stereo not drawn) [Trolox]
Sirtuin-1
  activation at 500 µM: 27%

## N=C(N)NN [aminoguanidine]
BSA
  Glycation % Variation: -85%
